Experimental data taken from patent US10189863B2, “5,6-dihydro-4H-benzo[b]thieno-[2,3-d]azepine derivatives” (PULMOCIDE LIMITED, priority 2014, dated 2019).
Where two headings read alike, the source gives them in different places.

Experiments:
RSV B Washington strain = assay: Assessment of RSV induced CPE in HEp2 cells (RSV B Washington strain); format: cell-based; conditions: human respiratory syncytial virus; for IC50: HEp-2, 144 h
Description: (§1) Assessment of RSV Induced CPE in HEp2 Cells
(§2) HEp2 cells were seeded (10^3/well/50 μL) in 384-well plates (Catalogue number 353962, BD Falcon, Oxford, UK) in […] containing 2 mM L-glutamine and 1 mM sodium pyruvate one day before infection. RSV A2 strain (#0709161v, NCPV, Public Health England, Wiltshire) or RSV B Washington strain (VR-1580, ATCC, Manassas, Va. 20108) virus solutions were prepared in serum free-DMEM with 2 mM L-glutamine and 1 mM sodium pyruvate, and then added (50 μL/well) to achieve a final virus concentration of 1 MOI. Simultaneously test compounds (0.5 μL DMSO solution) were added to 100 μL of HEp2 cell culture with virus solution to provide a final DMSO solution of 0.5%. Plates were incubated (37° C./5% CO2) for 5 days for studies using RSV A2 strain or 6 days for those using RSV B strain, and then resazurin sodium salt (5 μL of 0.03% solution; Sigma-Aldrich, Dorset, UK) was added to each well and the plate incubated for a further 6 hr (37° C./5% CO2). The fluorescence of each well [545 nm (excitation)/590 nm (emission)] was determined using a multi-scanner (Clariostar: BMG, Buckinghamshire, UK). The percentage inhibition for each well was calculated and the IC50, IC75 and IC90 values were calculated from the concentration-response curve generated for each test compound.

[1] = Cell viability: resazurin assay; format: cell-based, human; conditions: human, HEp2 cells
Description: Cell Viability: Resazurin Assay
HEp2 cells were seeded in 384-well plates (10^3/well/50 μL; BD Falcon Ref 353962) in FBS DMEM (5%, containing 2 mM L-glutamine and 1 mM sodium pyruvate) one day before experimentation. Serum-free DMEM (50 μL) was added to test wells while for control wells the media was removed and sterile water (100 μL) was added. Test compounds (0.5 μL DMSO solution) were added to give a final DMSO concentration of 0.5%. Hep2 cells were incubated with each test compound for 5 days (37° C./5% CO2 in 5% FBS) and then resazurin stock solution (5 μL; 0.03%) was added to each well and the plate incubated for a further 6 hr (37° C./5% CO2). The fluorescence of each well at 545 nm (excitation) and 590 nm (emission) was determined using a multi-scanner (Clariostar: BMG Labtech). The percentage loss of cell viability was calculated for each well relative to vehicle (0.5% DMSO) treatment.
Any apparent increase in cell viability associated with test compound treatment relative to vehicle is consequently tabulated as a negative percentage. Where appropriate, a CC50 value was calculated from the concentration-response curve generated from the concentration-response curve for each test compound.

RSV A2 strain = assay: Assessment of RSV induced CPE in HEp2 cells (RSV A2 strain); format: cell-based; conditions: human respiratory syncytial virus; for IC50: HEp-2, 120 h; for inhibition at 0.01 µg/mL: Inhibition (%) at 0.01 μg/mL
Description: as §1, §2

[2] = HEp2 cells, 1 MOI, 6 days, read-out: RSV B CPE IC50
[3] = HEp-2, HEp2 cells, Inhibition (%) at 1 μg/mL, read-out: RSV B CPE % Inhibition
[4] = HEp2 cells, 1 MOI, 5 days, read-out: RSV A2 CPE IC50
[5] = HEp-2, HEp2 cells, Inhibition (%) at 0.1 μg/mL, read-out: RSV A2 CPE % Inhibition

SMILES	IC50 (RSV B Washington strain; [2])	IC50 (RSV A2 strain; [4])	inhibition at 1 µg/mL (RSV B Washington strain; [3])	CC50 at 5 days [1]	inhibition at 0.01 µg/mL (RSV A2 strain; HEp-2, HEp2 cells)	inhibition at 0.1 µg/mL (RSV A2 strain; [5])	IC50 (RSV B Washington strain; read-out: RSV B CPE IC50 (nM))	inhibition at 1 µg/mL (RSV B Washington strain; HEp-2, read-out: RSV B CPE % Inhibition)	IC50 (RSV A2 strain; read-out: RSV A2 CPE IC50 (nM))	inhibition at 0.1 µg/mL (RSV A2 strain; HEp-2, read-out: RSV A2 CPE % Inhibition)
O=C(Nc1c(F)cc(F)cc1F)c1cc2c(s1)-c1ccccc1N(C(=O)c1ccc(NC(=O)c3cc4ccccc4nc3N3CC4(CCOCC4)C3)cc1)CC2 [Example 88, 6-(4-(2-(7-oxa-2-azaspiro[3.5]nonan-2-yl)quinoline-3-carboxamido)benzoyl)-N-(2,4,6-trifluorophenyl)-5,6-di-hydro-4H-benzo[b]thieno[2,3-d]azepine-2-carboxamide]	3 nM	0.58 nM	93%	> 12900 nM	93%					
COCCOc1cccc(F)c1NC(=O)c1cc2c(s1)-c1ccccc1N(C(=O)c1ccc(NC(=O)c3cc(C)cnc3N3CC4(CCOCC4)C3)cc1)CC2 [Example 55, N-(2-fluoro-6-(2-methoxyethoxy)phenyl)-6-(4-(5-methyl-2-(7-oxa-2-azaspiro[3.5]nonan-2-yl)nicotinamido)benzoyl)-5,6-dihydro-4H-benzo[b]thieno[2,3-d]azepine-2-carboxamide]	16.2 nM	0.15 nM	100%	> 12900 nM	100%					
Cc1cccc(F)c1NC(=O)c1cc2c(s1)-c1ccccc1N(C(=O)c1ccc(NC(=O)c3cc(Cl)cnc3N3CC4(CCOCC4)C3)cc1)CC2 [Example 69, 6-(4-(5-chloro-2-(7-oxa-2-azaspiro[3.5]nonan-2-yl)nicotinamido)benzoyl)-N-(2-fluoro-6-methylphenyl)-5,6-dihydro-4H-benzo[b]thieno[2,3-d]azepine-2-carboxamide]	15.3 nM	0.45 nM	100%	> 13600 nM	96%					
O=C(Nc1ccccc1)c1cc2c(s1)-c1ccccc1N(C(=O)c1ccc(NC(=O)c3cccnc3N3CC4(CCOCC4)C3)cc1)CC2 [Example 1, 6-(4-(2-(7-oxa-2-azaspiro[3.5]nonan-2-yl)nicotinamido)benzoyl)-N-phenyl-5,6-dihydro-4H-benzo[b]thieno[2,3-d]azepine-2-carboxamide]				> 14900 nM			166 nM	77%	0.5 nM	98%

Further lines, with some results ahead:

IC50 (RSV B Washington strain; [2])	IC50 (RSV A2 strain; [4])	SMILES	inhibition at 1 µg/mL (RSV B Washington strain; [3])	CC50 at 5 days [1]	inhibition at 0.01 µg/mL (RSV A2 strain; HEp-2, HEp2 cells)	inhibition at 0.1 µg/mL (RSV A2 strain; [5])	IC50 (RSV B Washington strain; read-out: RSV B CPE IC50 (nM))	inhibition at 1 µg/mL (RSV B Washington strain; HEp-2, read-out: RSV B CPE % Inhibition)	IC50 (RSV A2 strain; read-out: RSV A2 CPE IC50 (nM))	inhibition at 0.1 µg/mL (RSV A2 strain; HEp-2, read-out: RSV A2 CPE % Inhibition)
37.3 nM	0.96 nM	Cc1ccc(NC(=O)c2cc3c(s2)-c2ccccc2N(C(=O)c2ccc(NC(=O)c4cccnc4N4CC5(CCOCC5)C4)cc2)CC3)c(F)c1 [Example 22, 6-(4-(2-(7-oxa-2-azaspiro[3.5]nonan-2-yl)nicotinamido)benzoyl)-N-(2-fluoro-4-methylphenyl)-5,6-dihydro-4H-benzo[b]thieno[2,3-d]azepine-2-carboxamide]	77%	> 14200 nM		96%				
41.4 nM	0.17 nM	O=C(Nc1c(F)cc(F)cc1F)c1cc2c(s1)-c1ccccc1N(C(=O)c1ccc(NC(=O)c3cccnc3N3CC4(CCOCC4)C3)cc1)CC2 [Example 28, 6-(4-(2-(7-oxa-2-azaspiro[3.5]nonan-2-yl)nicotinamido)benzoyl)-N-(2,4,6-trifluorophenyl)-5,6-dihydro-4H-benzo[b] thieno[2,3-d]azepine-2-carboxamide]	66%	> 13800 nM		96%				
195 nM	1.3 nM	COc1ccc(C(=O)Nc2ccc(C(=O)N3CCc4cc(C(=O)Nc5ccccc5F)sc4-c4ccccc43)cc2)c(N2CC3(CCOCC3)C2)n1 [Example 3, 6-(4-(6-methoxy-2-(7-oxa-2-azaspiro[3.5]nonan-2-yl)nicotinamido)benzoyl)-N-(2-fluorophenyl)-5,6-dihydro-4H-benzo[b]thieno[2,3-d]azepine-2-carboxamide]	58%	> 13900 nM		100%				
